Laboratory results taken from patent publication US6737383B1, “Herbicidal oxadiazolidines” (priority 1999, dated 2004).

How the values were obtained:
blackgrass = experiment: Test B pre/postemergence blackgrass; assay type: in vivo, Alopecurus myosuroides
Summary of the method: (§1)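 Response is a visual 0-to-10 score relative to untreated plants, where 0 means no effect and 10 means complete control, taken twelve to sixteen days after application. Treatments went onto soil at planting and onto foliage of 1- to 4-leaf plants, using a surfactant-containing non-phytotoxic solvent.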

purple nutsedge = experiment: Test B pre/postemergence purple nutsedge; assay type: in vivo, Cyperus rotundus
Summary of the method: as §1

wheat = experiment: Test B pre/postemergence wheat; assay type: in vivo, Triticum aestivum
Summary of the method: as §1

corn = experiment: Test B pre/postemergence corn; assay type: in vivo, Zea mays
Summary of the method: as §1

duck salad = experiment: Test B flood test duck salad; assay type: in vivo, Heteranthera limosa
Summary of the method: (§2)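 Plants were grown to the 2-leaf stage before treatment with test chemical, then held in a greenhouse for twelve to sixteen days. Injury was visually rated against untreated controls on a 0–10 scale, where 0 is no effect and 10 is complete control.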

crabgrass = experiment: Test B pre/postemergence crabgrass; assay type: in vivo, Digitaria sanguinalis
Summary of the method: as §1

rice = experiment: Test B flood test rice; assay type: in vivo, Oryza sativa
Summary of the method: as §2

velvetleaf = experiment: Test B pre/postemergence velvetleaf; assay type: in vivo, Abutilon theophrasti
Summary of the method: as §1

rape = experiment: Test B pre/postemergence rape; assay type: in vivo, Brassica napus
Summary of the method: as §1

giant foxtail = experiment: Test B pre/postemergence giant foxtail; assay type: in vivo, Setaria faberii
Summary of the method: as §1

surinam grass = experiment: Test B pre/postemergence surinam grass; assay type: in vivo, Brachiaria decumbens
Summary of the method: as §1

wild oat = experiment: Test B pre/postemergence wild oat; assay type: in vivo, Avena fatua
Summary of the method: as §1

soybean = experiment: Test B pre/postemergence soybean; assay type: in vivo, Glycine max
Summary of the method: as §1

bedstraw = experiment: Test B pre/postemergence bedstraw; assay type: in vivo, Galium aparine
Summary of the method: as §1

morningglory = experiment: Test B pre/postemergence morningglory; assay type: in vivo, Ipomoea hederacea
Summary of the method: as §1

smallflower flatsedge = experiment: Test B flood test smallflower flatsedge; assay type: in vivo, Cyperus difformis
Summary of the method: as §2

[1] = Preemergence, Rate 62 g/ha, scale of 0 to 10 where 0 is no effect and 10 is complete control
[2] = Preemergence, Rate 250 g/ha, scale of 0 to 10 where 0 is no effect and 10 is complete control
[3] = Preemergence, Rate 500 g/ha, scale of 0 to 10 where 0 is no effect and 10 is complete control
[4] = Rate 62 g/ha, Postemergence, scale 0 to 10 (0 no effect, 10 complete control)
[5] = Rate 125 g/ha, Postemergence, scale of 0 to 10 where 0 is no effect and 10 is complete control
[6] = Rate 250 g/ha, Postemergence, scale of 0 to 10 where 0 is no effect and 10 is complete control
[7] = Rate 500 g/ha, Postemergence, scale 0 to 10, 0 no effect, 10 complete control
[8] = Rate 62 g/ha, headed Pre-emergence (flood test species), scale 0 to 10 (0 no effect, 10 complete control)
[9] = Rate 125 g/ha, Pre-emergence, flood test species, scale 0 to 10 where 0 is no effect and 10 is complete control
[10] = Rate 250 g/ha, Pre-emergence, flood-test species, scale 0 to 10, 0 is no effect, 10 is complete control
[11] = Rate 500 g/ha, Pre-emergence, flood test species, scale 0 to 10 (0 no effect, 10 complete control)

CCc1cccc(CC)c1-n1c(=O)on(C(=O)N(c2ccc(F)cc2)C(C)C)c1=O [Compound 304]
Blackgrass plant response rating (blackgrass; [1]): 0 | Blackgrass plant response rating (0 to 10 scale) (blackgrass; Preemergence, Rate 125 g/ha): 0 | Blackgrass plant response rating (blackgrass; [2]): 0 | Blackgrass plant response rating (blackgrass; [3]): 0 | Blackgrass plant response rating (blackgrass; [4]): 0 | Blackgrass plant response rating (blackgrass; [5]): 0 | Plant response rating, Blackgrass (blackgrass; [6]): 0 | Blackgrass plant response rating (blackgrass; [7]): 4 | Nutsedge plant response rating (purple nutsedge; [1]): 0 | Nutsedge plant response rating (0 to 10 scale) (purple nutsedge; Preemergence, Rate 125 g/ha): 0 | Nutsedge plant response rating (purple nutsedge; [2]): 0 | Nutsedge plant response rating (purple nutsedge; [3]): 0 | Nutsedge plant response rating (purple nutsedge; [4]): 0 | Nutsedge plant response rating (purple nutsedge; [5]): 0 | Plant response rating, Nutsedge (purple nutsedge; [6]): 0 | Wheat plant response rating (wheat; [1]): 0 | Wheat plant response rating (0 to 10 scale) (wheat; Preemergence, Rate 125 g/ha): 0 | Wheat plant response rating (wheat; [2]): 0 | Wheat plant response rating (wheat; [3]): 0 | Wheat plant response rating (wheat; [4]): 0 | Wheat plant response rating (wheat; [5]): 0 | Plant response rating, Wheat (wheat; [6]): 0 | Corn plant response rating (corn; [1]): 0 | Corn plant response rating (0 to 10 scale) (corn; Preemergence, Rate 125 g/ha): 0 | Corn plant response rating (corn; [2]): 0 | Corn plant response rating (corn; [3]): 0 | Corn plant response rating (corn; [4]): 0 | Corn plant response rating (corn; [5]): 0 | Plant response rating, Corn (corn; [6]): 0 | Corn plant response rating (corn; [7]): 0 | Ducksalad plant response rating (duck salad; [8]): 0 | Ducksalad plant response rating (duck salad; [9]): 0 | Ducksalad plant response rating (duck salad; [10]): 0 | Ducksalad plant response rating (duck salad; [11]): 0 | Crabgrass plant response rating (crabgrass; [1]): 3 | Crabgrass plant response rating (0 to 10 scale) (crabgrass; Preemergence, Rate 125 g/ha): 4 | Crabgrass plant response rating (crabgrass; [2]): 6 | Crabgrass plant response rating (crabgrass; [3]): 8 | Crabgrass plant response rating (crabgrass; [4]): 0 | Crabgrass plant response rating (crabgrass; [5]): 0 | Plant response rating, Crabgrass (crabgrass; [6]): 0 | Rice plant response rating (rice; [8]): 0 | Rice plant response rating (rice; [9]): 0 | Rice plant response rating (rice; [10]): 0 | Rice plant response rating (rice; [11]): 0 | Velvetleaf plant response rating (velvetleaf; [1]): 0 | Velvetleaf plant response rating (0 to 10 scale) (velvetleaf; Preemergence, Rate 125 g/ha): 0 | Velvetleaf plant response rating (velvetleaf; [2]): 0 | Velvetleaf plant response rating (velvetleaf; [3]): 0 | Velvetleaf plant response rating (velvetleaf; [4]): 0 | Velvetleaf plant response rating (velvetleaf; [5]): 0 | Plant response rating, Velvetleaf (velvetleaf; [6]): 0 | Rape plant response rating (rape; [1]): 0 | Rape plant response rating (0 to 10 scale) (rape; Preemergence, Rate 125 g/ha): 0 | Rape plant response rating (rape; [2]): 0 | Rape plant response rating (rape; [3]): 0 | Rape plant response rating (rape; [4]): 0 | Rape plant response rating (rape; [5]): 0 | Plant response rating, Rape (rape; [6]): 0 | Giant foxtail plant response rating (giant foxtail; [1]): 0 | Giant foxtail plant response rating (0 to 10 scale) (giant foxtail; Preemergence, Rate 125 g/ha): 4 | Giant foxtail plant response rating (giant foxtail; [2]): 6 | Giant foxtail plant response rating (giant foxtail; [3]): 6 | Giant foxtail plant response rating (giant foxtail; [4]): 0 | Giant foxtail plant response rating (giant foxtail; [5]): 0 | Plant response rating, Giant foxtail (giant foxtail; [6]): 0 | B. signalgrass plant response rating (surinam grass; [1]): 0 | B. signalgrass plant response rating (0 to 10 scale, 0 is no effect, 10 is complete control) (surinam grass; Preemergence, Rate 125 g/ha): 0 | B. signalgrass plant response rating (surinam grass; [2]): 0 | B. signalgrass plant response rating (surinam grass; [3]): 0 | B. signalgrass plant response rating (surinam grass; [4]): 0 | B. signalgrass plant response rating (surinam grass; [5]): 0 | Plant response rating, B. signalgrass (surinam grass; [6]): 0 | B. signalgrass plant response rating (surinam grass; [7]): 0 | Wild oats plant response rating (wild oat; [1]): 0 | Wild oats plant response rating (0 to 10 scale) (wild oat; Preemergence, Rate 125 g/ha): 0 | Wild oats plant response rating (wild oat; [2]): 0 | Wild oats plant response rating (wild oat; [3]): 0 | Wild oats plant response rating (wild oat; [4]): 0 | Wild oats plant response rating (wild oat; [5]): 0 | Plant response rating, Wild oats (wild oat; [6]): 0 | Soybean plant response rating (soybean; [1]): 0 | Soybean plant response rating (0 to 10 scale) (soybean; Preemergence, Rate 125 g/ha): 0 | Soybean plant response rating (soybean; [2]): 0 | Soybean plant response rating (soybean; [3]): 0 | Soybean plant response rating (soybean; [4]): 3 | Soybean plant response rating (soybean; [5]): 4 | Plant response rating, Soybean (soybean; [6]): 5 | Bedstraw plant response rating (bedstraw; [1]): 0 | Bedstraw plant response rating (0 to 10 scale) (bedstraw; Preemergence, Rate 125 g/ha): 0 | Bedstraw plant response rating (bedstraw; [2]): 0 | Bedstraw plant response rating (bedstraw; [3]): 0 | Bedstraw plant response rating (bedstraw; [4]): 0 | Bedstraw plant response rating (bedstraw; [5]): 0 | Morningglory plant response rating (morningglory; [1]): 0 | Morningglory plant response rating (0 to 10 scale) (morningglory; Preemergence, Rate 125 g/ha): 0 | Morningglory plant response rating (morningglory; [2]): 0 | Morningglory plant response rating (morningglory; [3]): 0 | Morningglory plant response rating (morningglory; [4]): 3 | Morningglory plant response rating (morningglory; [5]): 3 | Plant response rating, Morningglory (morningglory; [6]): 3 | S. Flatsedge plant response rating (smallflower flatsedge; [8]): 0 | S. Flatsedge plant response rating (smallflower flatsedge; [9]): 0 | S. Flatsedge plant response rating (smallflower flatsedge; [10]): 0 | S. Flatsedge plant response rating (smallflower flatsedge; [11]): 0
